Test results: paper PMC4460250, “Systems Pharmacology Dissecting Holistic Medicine for Treatment of Complex Diseases: An Example Using Cardiocerebrovascular Diseases Treated by TCM” (Evidence-based Complementary and Alternative Medicine : eCAM, 2015)
Read-outs that look alike come from different tables or passages of the source.

Columns and labels:
[1] = Human intestinal absorption percentage values of the PreHIA data set (732 compounds, Table S2); conditions: class from HIA value
[2] = cited from earlier work
[3] = in vivo

SMILES | Class(High: HIA value ≥0.7; Low: HIA value < 0.7) [1] | HIA(Human Intestinal Absorption) ([2]; human, PreHIA data set, value given as fraction) | Class(High: HIA value ≥0.7; Low: HIA value < 0.7) [3] | HIA(Human Intestinal Absorption) ([2]; in vivo)
CN(C(=O)C(Cl)Cl)c1ccc(O)cc1 [Diloxanide] | High (High: HIA value ≥0.7) | 0.9 | – | –
C[C@@H]1O[C@@H](O[C@H]2C[C@@H](O)[C@]3(CO)[C@H]4[C@H](O)C[C@]5(C)[C@@H](C6=CC(=O)OC6)CC[C@]5(O)[C@@H]4CC[C@]3(O)C2)[C@H](O)[C@H](O)[C@H]1O [Ouabain] | Low (Low: HIA value < 0.7) | – | – | –
CCOC(=O)N1CCC(=C2c3ccc(Cl)cc3CCc3cccnc32)CC1 [Loratadine] | High (High: HIA value ≥0.7) | – | – | –
CCCCC(C)(O)C/C=C/[C@H]1[C@H](O)CC(=O)[C@@H]1CCCCCCC(=O)OC (stereo partly drawn) [Misoprostol(R)] | – | – | High (key: High: HIA value ≥0.7; Low: HIA value < 0.7) | 0.88
C=CCC1(C(C)CCC)C(=O)NC(=O)NC1=O (stereo not shown) [Quinalbarbitone] | – | – | High (key: High: HIA value ≥0.7; Low: HIA value < 0.7) | 0.9
COc1c(N2CCN[C@@H](C)C2)c(F)cc2c(=O)c(C(=O)O)cn(C3CC3)c12 [Gatifloxacin(S)] | – | – | High (key: High: HIA value ≥0.7; Low: HIA value < 0.7) | 0.96
CC(C)(C)NC[C@@H](O)c1ccc(O)c(CO)c1 [Albuterol(S)] | – | – | High (key: High: HIA value ≥0.7; Low: HIA value < 0.7) | 0.83
CCOC(=O)[C@H](CCc1ccccc1)N[C@@H](C)C(=O)N1[C@H](C(=O)O)C[C@@H]2CCC[C@@H]21 [Ramipril] | – | – | Low (key: High: HIA value ≥0.7; Low: HIA value < 0.7) | 0.6
N=C(N)NC[C@H]1COC2(CCCCC2)O1 [Guanadrel(S)] | – | – | High (key: High: HIA value ≥0.7; Low: HIA value < 0.7) | 0.8
O/N=C/c1cc[n+](COC[n+]2ccc(/C=N/O)cc2)cc1 [Obidoxime] | – | – | Low (key: High: HIA value ≥0.7; Low: HIA value < 0.7) | 0.05
CCN1CCCC1CNC(=O)c1cc(S(N)(=O)=O)ccc1OC (stereo not shown) [Sulpiride] | – | – | Low (key: High: HIA value ≥0.7; Low: HIA value < 0.7) | 0.44
O=C(O)CN(CCN(CC(=O)O)CC(=O)O)CC(=O)O [Edetic_acid] | – | – | Low (key: High: HIA value ≥0.7; Low: HIA value < 0.7) | 0.05
CN1CCCC1c1cccnc1 (stereo in doubt) [Nicotine(R)] | – | – | High (key: High: HIA value ≥0.7; Low: HIA value < 0.7) | 1
COC(=O)C(c1ccccc1Cl)N1CCc2sccc2C1 (stereo in doubt) [Clopidogrel(R)] | – | – | Low (key: High: HIA value ≥0.7; Low: HIA value < 0.7) | 0.5
CC(C)(C)NC[C@H](O)COc1cccc2c1CCC(=O)N2 [Carteolol(S)] | – | – | High (key: High: HIA value ≥0.7; Low: HIA value < 0.7) | 0.95
N=C(N)NC[C@@H]1COc2ccccc2O1 [Guanoxan(R)] | – | – | Low (key: High: HIA value ≥0.7; Low: HIA value < 0.7) | 0.5
O=C1CN=C(c2ccccn2)c2cc(Br)ccc2N1 [Bromazepam] | – | – | High (key: High: HIA value ≥0.7; Low: HIA value < 0.7) | 0.84
CC(C)NC[C@@H](O)c1ccc(NS(C)(=O)=O)cc1 [Sotalol(S)] | – | – | High (key: High: HIA value ≥0.7; Low: HIA value < 0.7) | 0.95
CCCC(CCC)CCC[C@H]1COCCN1CCO [Delmopinol(S)] | – | – | High (key: High: HIA value ≥0.7; Low: HIA value < 0.7) | 0.95
CN1C(=O)CC[C@H]1c1cccnc1 [Cotinine(S)] | – | – | High (key: High: HIA value ≥0.7; Low: HIA value < 0.7) | 0.97
Clc1ccc(CO[C@@H](Cn2ccnc2)c2ccc(Cl)cc2Cl)c(Cl)c1 [Miconazole(R)] | – | – | High (key: High: HIA value ≥0.7; Low: HIA value < 0.7) | 0.99
C#CCN(C)[C@H](C)Cc1ccccc1 [Selegiline(R)] | – | – | High (key: High: HIA value ≥0.7; Low: HIA value < 0.7) | 1
N#C[C@H](O[C@@H]1O[C@H](CO[C@@H]2O[C@H](CO)[C@@H](O)[C@H](O)[C@H]2O)[C@@H](O)[C@H](O)[C@H]1O)c1ccccc1 [Amygdalin(S)] | – | – | Low (key: High: HIA value ≥0.7; Low: HIA value < 0.7) | 0.05
C=CCOc1ccccc1OC[C@H](O)CNC(C)C [Oxprenolol(R)] | – | – | High (key: High: HIA value ≥0.7; Low: HIA value < 0.7) | 0.95

SMILES | Class(High: HIA value ≥0.7; Low: HIA value < 0.7) [1] | HIA(Human Intestinal Absorption) ([2]; human, PreHIA data set, value given as fraction) | Class(High: HIA value ≥0.7; Low: HIA value < 0.7) [3] | HIA(Human Intestinal Absorption) ([2]; in vivo)
O[C@@](CCN1CCCCC1)(c1ccccc1)C1CCCCC1 [Trihexyphenidyl(R)] | – | – | High (key: High: HIA value ≥0.7; Low: HIA value < 0.7) | 1
CCN(CC)[C@H](C)C(=O)c1ccccc1 [Diethylpropion(R)] | – | – | High (key: High: HIA value ≥0.7; Low: HIA value < 0.7) | 0.95
COc1ccc(CCN(C)CCC[C@](C#N)(c2cc(OC)c(OC)c(OC)c2)C(C)C)cc1OC [Gallopamil(R)] | – | – | High (key: High: HIA value ≥0.7; Low: HIA value < 0.7) | 0.97
COC(=O)[C@H](c1ccccc1Cl)N1CCc2sccc2C1 [Clopidogrel(S)] | – | – | Low (key: High: HIA value ≥0.7; Low: HIA value < 0.7) | 0.5
Cc1cccc(C)c1OC[C@@H](C)N [Mexiletine(R)] | – | – | High (key: High: HIA value ≥0.7; Low: HIA value < 0.7) | 0.98
COc1ccc2c3c1O[C@H]1C(=O)CC[C@@]4(O)[C@@H](C2)N(C)CC[C@]314 [Oxycodone] | – | – | Low (key: High: HIA value ≥0.7; Low: HIA value < 0.7) | 0.6
CCN1CCC[C@H]1CNC(=O)c1c(OC)ccc(Br)c1OC [Remoxipride(S)] | – | – | High (key: High: HIA value ≥0.7; Low: HIA value < 0.7) | 1
N=C(N)NC[C@@H]1COC2(CCCCC2)O1 [Guanadrel(R)] | – | – | High (key: High: HIA value ≥0.7; Low: HIA value < 0.7) | 0.8
CC1(C)S[C@@H]2[C@H](NC(=O)[C@H](N)c3ccc(O)cc3)C(=O)N2[C@H]1C(=O)O [Amoxicillin] | High (High: HIA value ≥0.7) | – | – | –
CC[C@H](C)[C@H]1O[C@]2(CC[C@@H]1C)C[C@@H]1C[C@@H](C/C=C(\C)[C@@H](O[C@H]3C[C@H](OC)[C@@H](O[C@H]4C[C@H](OC)[C@@H](O)[C@H](C)O4)[C@H](C)O3)[C@@H](C)/C=C/C=C3\CO[C@@H]4[C@H](O)C(C)=C[C@@H](C(=O)O1)[C@]34O)O2 [Ivermectin] | – | – | Low (key: High: HIA value ≥0.7; Low: HIA value < 0.7) | 0.6
CCC[C@@H](C)C1(CC)C(=O)NC(=O)NC1=O [Pentobarbital(R)] | – | – | High (key: High: HIA value ≥0.7; Low: HIA value < 0.7) | 1
CN(C)CC[C@H](c1ccccc1)c1ccccn1 [Pheniramine(R)] | – | – | High (key: High: HIA value ≥0.7; Low: HIA value < 0.7) | 0.99
CCn1cc(C(=O)O)c(=O)c2cc(F)c(N3CCN[C@H](C)C3)c(F)c21 [Lomefloxacin(R)] | – | – | High (key: High: HIA value ≥0.7; Low: HIA value < 0.7) | 0.99
C[C@H](C(=O)O)c1ccc(-c2ccccc2)c(F)c1 [Flurbiprofen(S)] | – | – | High (key: High: HIA value ≥0.7; Low: HIA value < 0.7) | 0.95
COc1ccccc1OCCNC[C@@H](O)COc1cccc2[nH]c3ccccc3c12 [Carvedilol(R)] | – | – | High (key: High: HIA value ≥0.7; Low: HIA value < 0.7) | 0.8
CCOC(=O)C1(c2ccccc2)CCC=CC1N(C)C (stereo not shown) [Tilidine] | – | – | High (key: High: HIA value ≥0.7; Low: HIA value < 0.7) | 1
NS(=O)(=O)c1cc2c(cc1Cl)N[C@H](CC1CCCC1)NS2(=O)=O [Cyclopenthiazide(S)] | – | – | High (key: High: HIA value ≥0.7; Low: HIA value < 0.7) | 1
Cc1cccc(C)c1NC(=O)[C@H](C)N [Tocainide(S)] | – | – | High (key: High: HIA value ≥0.7; Low: HIA value < 0.7) | 1
N[C@H](CO)C(=O)NNCc1ccc(O)c(O)c1O [Benserazide(R)] | – | – | High (key: High: HIA value ≥0.7; Low: HIA value < 0.7) | 0.7
C[C@H](N[C@@H](CCc1ccccc1)C(=O)O)C(=O)N1CCC[C@H]1C(=O)O [Enalaprilat] | – | – | Low (key: High: HIA value ≥0.7; Low: HIA value < 0.7) | 0.25
COc1ccccc1OCCNC[C@@H](O)c1ccc(C)c(S(N)(=O)=O)c1 [Amosulalol(S)] | – | – | High (key: High: HIA value ≥0.7; Low: HIA value < 0.7) | 1
COc1ccccc1OC[C@@H](O)COC(N)=O [Methocarbamol(R)] | – | – | High (key: High: HIA value ≥0.7; Low: HIA value < 0.7) | 1
C[C@@H](CN1c2ccccc2Sc2ccccc21)N(C)C [Promethazine(S)] | – | – | High (key: High: HIA value ≥0.7; Low: HIA value < 0.7) | 0.95
